Data published in US12630527B2, “Broad spectrum anti-cancer compounds” (The Regents of the University of California, priority 2019, dated 2026).
Values belong to the molecule of their own block, whether it stands above or below them.

Tests used:
[1] = system: TS576 glioblastoma stem cells; experiment: Tumorosphere (neurosphere) formation assay, TS576; assay type: cell-based, human; conditions: TS576, 30 μM, 2 days, vs vehicle control
Procedure: To understand the effects of our FTO inhibitors on the self-renewal properties of GSCs, tumorospheres cultured from the patient-derived GSC line TS576 were treated with 30 μM of FTO-04, FTO-10, FTO-11, or FTO-12 (FIG. 29A-29B; cell line gifted from the Furnari lab).^45, 46 The GSCs were cultured in sphere-forming assays for 24 hours, then treated with either inhibitors or DMSO control for 2 days. The size of the tumorospheres was calculated using ImageJ.
Early passaged GSCs were used to understand the efficacy of ALK-04 on the self-renewal capacity of GSCs by tumorsphere-formation assay as described earlier^10, 11. In brief, GSCs were seeded at 4×10^4 cells in 24 well plate and cultured for 3 days followed by treatment with ALK-04 inhibitors at 20 μM daily for 3 days. After 3 days of treatment the images of the tumorospheres were imaged with phase contrast microscope and size was measured with Image J, to understand the effects of drugs on the self-renewal of GSCs on sphere formation. This process was also repeated for healthy neural stem cells (hNSCs) treated daily with 20 μM ALK-04 for three days to assess the therapeutic ratio.

ALKBH5 = molecular target: T1, ALKBH5 (Homo sapiens, UniProt Q6P6C2); experiment: Fluorescence enzymatic inhibition assay (m6A7-Broccoli / DFHBI-1T), ALKBH5; assay type: biochemical; conditions: for inhibition of ALKBH5 at the highest concentration measured: highest concentration 40 μM; for IC50: Permeability Data and IC50 tables the 33rd table/the 34th table, unit inferred
T1 construct: SUMO (N); His10 (N); made in house; host or cells: E. coli BL21
T1 sequence (Q6P6C2 whole entry): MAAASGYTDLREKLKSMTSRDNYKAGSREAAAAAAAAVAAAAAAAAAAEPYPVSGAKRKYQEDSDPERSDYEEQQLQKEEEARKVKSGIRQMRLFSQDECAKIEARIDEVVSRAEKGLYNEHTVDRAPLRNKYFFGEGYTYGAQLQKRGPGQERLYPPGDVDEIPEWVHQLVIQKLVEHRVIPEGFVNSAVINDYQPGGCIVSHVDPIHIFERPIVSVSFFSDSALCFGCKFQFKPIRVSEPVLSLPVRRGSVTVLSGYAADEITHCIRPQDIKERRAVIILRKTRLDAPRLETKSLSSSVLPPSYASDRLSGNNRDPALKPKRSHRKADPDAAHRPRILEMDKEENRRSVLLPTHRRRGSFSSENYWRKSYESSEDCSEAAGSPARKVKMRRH
Procedure: (§1) E. coli BL21 competent cells (New England Biolabs) were transformed with pET28-SUMO-His10-FTO plasmid (a generous gift from the Jaffrey lab) by heat shock and spread on a LB Kanamycin agar plate, then incubated overnight at 37° C. 2-3 colonies were picked and transferred to 5 mL of LB media treated with kanamycin (0.5 mg mL^−1 final concentration), then grown overnight shaking at 37° C. The overnight culture was then transferred to 2 L of LB kanamycin media and incubated at 37° C. until OD 0.8. The culture was cooled at 4° C. for 20 mins and induced with 0.5 mM isopropyl β-D-1-thiogalactopyranoside (IPTG), then grown shaken at 16° C. Cell pellets were collected by centrifugation (5,000 g for 10 min at 4° C.) and the supernatant was discarded. The pellets were resuspended in B-PER Bacterial Protein Extraction Reagent (6 mL per gram) with DNase 1 (5 U per mL, RNase-free) and incubated at 4° C. for 1 hour. The suspension was centrifuged at 10,000 g for 20 min and the supernatant was transferred to a Talon Metal Affinity Resin column that had been pre-equilibrized with binding buffer (50 mM NaH2PO4 pH 7.2, 300 mM NaCl, 20 mM imidazole, 1 mM β-mercaptoethanol in RNase-free water). […] The eluant was combined and transferred to a Slyde-A-Lyzer Dialysis Cassette (20,000 MWCO, Thermo Scientific) and dialyzed overnight at 4° C. against dialysis buffer (50 mM Tris-HCl pH 7.4, 100 mM NaCl, 5 mM B-mercaptoethanol, 5% (v/v) glycerol in RNase-free water). […] ALKBH5 was expressed and purified from pET28-SUMO-His10-ALKBH5 plasmid by the same procedure described above.
(§2) Inhibitors were added in concentrations ranging from 0.008-40 μM; all inhibitors were dissolved in DMSO and added to a final concentration of 0.2% DMSO. […] After incubation at room temperature for 2 hours, the plates were left at 4° C. overnight (16 hours) to allow DFHBI-1T to bind to A7-Broccoli RNA. […] Sigmoidal dose-response curves were fitted in GraphPad Prism 6. All assays were performed in triplicate, with additional repetitions added as necessary.

FTO = molecular target: T2, FTO (Homo sapiens, UniProt Q9C0B1); experiment: Fluorescence enzymatic inhibition assay (m6A7-Broccoli / DFHBI-1T), FTO; assay type: biochemical; conditions: for precipitation in assay buffer: dose response could not be determined
T2 construct: SUMO (N); His10 (N); made in house; host or cells: E. coli BL21
T2 sequence (Q9C0B1 whole entry): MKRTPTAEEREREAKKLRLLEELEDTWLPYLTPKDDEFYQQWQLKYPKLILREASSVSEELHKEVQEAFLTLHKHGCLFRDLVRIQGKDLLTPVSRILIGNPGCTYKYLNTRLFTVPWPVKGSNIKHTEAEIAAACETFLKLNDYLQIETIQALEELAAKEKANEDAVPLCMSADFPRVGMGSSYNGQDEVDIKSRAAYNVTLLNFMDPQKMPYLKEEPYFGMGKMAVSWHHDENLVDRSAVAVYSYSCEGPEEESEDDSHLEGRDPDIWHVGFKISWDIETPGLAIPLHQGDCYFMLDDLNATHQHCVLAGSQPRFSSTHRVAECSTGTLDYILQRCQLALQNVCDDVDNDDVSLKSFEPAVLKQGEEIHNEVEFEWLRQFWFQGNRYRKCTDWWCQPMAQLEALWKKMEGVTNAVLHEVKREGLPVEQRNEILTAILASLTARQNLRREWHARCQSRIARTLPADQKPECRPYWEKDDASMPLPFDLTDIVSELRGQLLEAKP
Procedure: In order to determine their efficacy as FTO inhibitors, the compounds were screened by a fluorescence enzymatic inhibition assay developed previously by the Jaffrey lab.^44 Briefly, a nonfluorescent methylated RNA substrate termed “m6A7-Broccoli” is incubated with FTO in the presence of 2-oxoglutarate (300 μM), (NH4)2Fe(SO4)2·6H2O (300 μM), and L-ascorbate (2 mM) for 2 hours at room temperature in reaction buffer (50 mM NaHEPES, pH 6).
as §1, §2

SUM159PT = experiment: High Throughput Screen for growth inhibition, SUM159PT; assay type: cell-based; conditions: Breast, 3 days, unit not given
Procedure: (§3) The High Throughput Screen method is described below. The endpoint readout of this assay is based upon quantitation of ATP as an indicator of viable cells.
(§4) Cell lines that have been preserved in liquid nitrogen are thawed and expanded in growth media (see Table 1-3). Once cells have reached expected doubling times, screening begins. Cells are seeded in growth media in black 384-well tissue culture treated plates at 500-1500 cells per well (as noted in Analyzer). Cells are equilibrated in assay plates via centrifugation and placed at 37° C. 5% CO2 for twenty-four hours before treatment. […] Assay plates are incubated with compound for 3 days and are then analysed using CellTiter-Glo 2.0. All data points are collected via automated processes and are subject to quality control and analysed using Horizon's software.
(§5) Growth Inhibition (GI) is utilized as a measure of cell growth. The GI percentages are calculated by applying the following test and equation: If T<V_0: 100*(1−(T−V_0)/V_0) If T≥V_0: 100*(1−(T−V_0)/(V−V_0)) where T is the signal measure for a test article, V is the untreated/vehicle-treated control measure, and Vo is the untreated/vehicle control measure at time zero (also colloquially referred as T0 plates). This formula is derived from the Growth Inhibition calculation used in the National Cancer Institute's NCI-60 high throughput screen. […]

AGS = experiment: High Throughput Screen for growth inhibition, AGS; assay type: cell-based; conditions: Gastric, 3 days, unit not given
Procedure: as §3, §4
(§6) Growth Inhibition (GI) is utilized as a measure of cell growth. The GI percentages are calculated by applying the following test and equation: If T<V_0: 100*(1−(T−V_0)/V_0) If T≥V_0: 100*(1−(T−V_0)/(V−V_0)) where T is the signal measure for a test article, V is the untreated/vehicle-treated control measure, and Vo is the untreated/vehicle control measure at time zero (also colloquially referred as T0 plates). This formula is derived from the Growth Inhibition calculation used in the National Cancer Institute's NCI-60 high throughput screen. For the purposes of this report, all data analysis was performed in Growth Inhibition (except where noted).
(§7) A GI of 100% represents complete growth inhibition (cytostasis) and in this case cells treated with compound for 3 days would have the same endpoint reading as TO control cells. A GI of 200% represents complete death (cytotoxicity) of all cells in the culture well and in this case the T reading at 3 days will be lower than the TO control (values near or at zero).
(§8) Horizon also provides Inhibition as a measure of cell viability. Inhibition levels of 0% represent no inhibition of cell growth by treatment. Inhibition of 100% represents no doubling of cell numbers during the treatment window. Both cytostatic and cytotoxic treatments can yield an Inhibition percentage of 100%. Inhibition percentage is calculated as the following: I=1−T/U where T is the treated and U is the untreated/vehicle control.

BICR16 = experiment: High Throughput Screen for growth inhibition, BICR16; assay type: cell-based; conditions: BICR16, Head and Neck; 3 days; unit not given
Procedure: as §3, §4, §6, §7
(§9) Horizon also provides Inhibition as a measure of cell viability. Inhibition levels of 0% represent no inhibition of cell growth by treatment. […] Inhibition percentage is calculated as the following: I=1−T/U where T is the treated and U is the untreated/vehicle control.

HCT-116 = experiment: High Throughput Screen for growth inhibition, HCT-116; assay type: cell-based; conditions: HCT-116, Colon; 3 days; unit not given
Procedure: as §3, §4, §5

LUDLU-1 = experiment: High Throughput Screen for growth inhibition, LUDLU-1; assay type: cell-based; conditions: LUDLU-1, LUSC; 3 days; unit not given
Procedure: as §3, §4, §6, §7, §9

Kasumi-1 = experiment: High Throughput Screen for growth inhibition, Kasumi-1; assay type: cell-based; conditions: Kasumi-1, Leukemia; 3 days; unit not given
Procedure: as §3, §4, §5

SW480 = experiment: High Throughput Screen for growth inhibition, SW480; assay type: cell-based; conditions: SW480, Colon; 3 days; unit not given
Procedure: as §3, §4, §5

MOLT-4 = experiment: High Throughput Screen for growth inhibition, MOLT-4; assay type: cell-based; conditions: MOLT-4, Leukemia; 3 days; unit not given
Procedure: as §3, §4, §6, §7, §8

HEC-50B = experiment: High Throughput Screen for growth inhibition, HEC-50B; assay type: cell-based; conditions: Endometrial (uterine), 3 days, unit not given
Procedure: as §3, §4, §5

SMILES: Nc1ncc(-c2ccc3cc(O)ccc3c2)cn1 [FTO-10, 6-(2-aminopyrimidin-5-yl)naphthalen-2-ol]
size of tumorospheres [1]: significant reduction in size of the tumorospheres

inhibition of ALKBH5 at the highest concentration measured (ALKBH5): no measurable inhibition
SMILES: Oc1ccc2cc(-c3cncnc3)ccc2c1 [FTO-1, 6-(pyrimidin-5-yl)naphthalen-2-ol]

SMILES: COCCNc1ncc(-c2ccc3cc(OC)ccc3c2)cn1 [FTO-15, N-(2-methoxyethyl)-5-(6-methoxynaphthalen-2-yl)pyrimidin-2-amine]
precipitation in assay buffer (FTO): significant precipitation in assay buffer

inhibition of ALKBH5 at the highest concentration measured (ALKBH5): no measurable inhibition
SMILES: COc1ccc2cc(-c3cnc(N)nc3)ccc2c1 [FTO-12, 5-(6-methoxynaphthalen-2-yl)pyrimidin-2-amine]
size of tumorospheres [1]: significant reduction in size of the tumorospheres

inhibition of ALKBH5 at the highest concentration measured (ALKBH5): no measurable inhibition
SMILES: Cc1ccc2cc(-c3cncnc3)ccc2n1 [FTO-7, 2-methyl-6-(pyrimidin-5-yl)quinoline]

SMILES: c1cncc(CNc2ccc(CNC3CC3)cn2)c1 [TR-YTH-05]
Growth Inhibition (GI) Values (SUM159PT): 8.629 | Growth Inhibition (GI) Values (AGS): 6.35

IC50 (ALKBH5): 16.7 ± 2.6 µM
SMILES: COC(=O)C1COC(c2ccc(OC)cc2)N1 (centres unmarked) [ALK-12]

inhibition of ALKBH5 at the highest concentration measured (ALKBH5): no measurable inhibition
SMILES: COCCNc1ncc(-c2ccc(OCc3ccccc3)cc2)cn1 [FTO-18, 5-(4-(benzyloxy)phenyl)-N-(2-methoxyethyl)pyrimidin-2-amine]

SMILES: Nc1ncc(-c2cccc(Nc3ccccc3)c2)cn1 [FTO-9, 5-(3-(phenylamino)phenyl)pyrimidin-2-amine]
preference (selectivity) between FTO and ALKBH5 (FTO; ratio of potency towards FTO and ALKBH5): almost ten times more potent towards ALKBH5

SMILES: COc1ncc(-c2cccc(OCc3ccccc3)c2)cn1 [FTO-3, 5-(3-(benzyloxy)phenyl)-2-methoxypyrimidine]
precipitation in assay buffer (FTO): significant precipitation in assay buffer

SMILES: Clc1ccccc1-c1ccc(CNCC2(N3CCCC3)COC2)o1 [TR-FTO-43 N]
Growth Inhibition (GI) Values (BICR16): 25.212 | Growth Inhibition (GI) Values (HCT-116): 31.451 | Growth Inhibition (GI) Values (AGS): 21.005 | Growth Inhibition (GI) Values (LUDLU-1): 28.561 | Growth Inhibition (GI) Values (Kasumi-1): 18.136 | Growth Inhibition (GI) Values (SW480): 28.499 | Growth Inhibition (GI) Values (MOLT-4): 24.595

IC50 (ALKBH5): 18.2 ± 2.3 µM
SMILES: COC(=O)C1COC(c2ccccc2OC)N1 (centres unmarked) [ALK-15]

inhibition of ALKBH5 at the highest concentration measured (ALKBH5): no measurable inhibition
SMILES: COc1ccc2cc(-c3cncnc3)ccc2c1 [FTO-5, 5-(6-methoxynaphthalen-2-yl)pyrimidine]

IC50 (ALKBH5): 29.8 ± 2.9 µM
SMILES: COC(=O)C1COC(c2ccccc2F)N1 (centres unmarked) [ALK-14]

SMILES: COc1ncc(-c2ccc3nc(C)ccc3c2)cn1 [FTO-11, 6-(2-methoxypyrimidin-5-yl)-2-methylquinoline]
size of tumorospheres [1]: significant reduction in size of the tumorospheres

SMILES: c1ccc(-c2ccc(CNCC3(N4CCCC4)COC3)s2)cc1 [TR-FTO-38]
Growth Inhibition (GI) Values (HEC-50B): 14.018 | Growth Inhibition (GI) Values (BICR16): 29.832 | Growth Inhibition (GI) Values (AGS): 23.3 | Growth Inhibition (GI) Values (LUDLU-1): 31.952 | Growth Inhibition (GI) Values (MOLT-4): 24.366

SMILES: FC1CCN(C2(CNCc3ccc(-c4ccccc4Cl)o3)COC2)C1 (centres unmarked) [TR-FTO-49 N]
Growth Inhibition (GI) Values (MOLT-4): 27.521
